Reference: article PMC2365198, “Chemistry and Pharmacokinetics of Gallium Maltolate, a Compound With High Oral Gallium Bioavailability” (Metal-Based Drugs, 2000)
Where “and” joins values, the source holds several entries; their conditions need not be identical. Equal entries are not always repeated. Each block holds one compound with its values, some of them ahead of it.

Experiments:
[1] = dog, in vivo, 1.5 mg/kg
[2] = Pharmacokinetics of single oral dose of gallium chloride in cancer patients (data of Collery et al.); assay type: in vivo, human; conditions: data of ref 12
[3] = parameters: method as in earlier work; conditions: human cancer patients, single oral dose 800 mg (317 mg Ga); cited from earlier work
healthy human subjects = test: Clinical single-dose escalation study, safety and tolerability
Solubility in water = assay type: physicochemical; conditions: 25 C; listed as GaM
[4] = Dog bioavailability study (serum gallium); conditions: healthy young beagle dogs, intraduodenal or oral
[5] = Stability of dilute aqueous solution as a function of pH (absorbance at 303 nm); assay type: physicochemical
[6] = Clinical single-dose escalation study, pharmacokinetics of oral gallium maltolate (serum and urine gallium); conditions: human; for FAe: cumulative urinary excretion as fraction of administered dose: 72h; for F (V=29.5 L): from V/F
[7] = human, in vivo, po
[8] = single oral dose 100 mg [15.7 mg Ga]
[9] = single oral dose 200 mg [31.3 mg Ga]
[10] = single oral dose 300 mg [47.0 mg Ga]
[11] = single oral dose 500 mg [78.4 mg Ga]

Structure (SMILES): O=[N+]([O-])[O-].O=[N+]([O-])[O-].O=[N+]([O-])[O-].[Ga+3] [Ga nitrate, gallium nitrate]
Cmax [1]: 0.31 (0.02) lg/mL | K01 half life [1]: 0.8(0.2) h | Tmax [1]: 3.1 (0.4) h | beta half life [1]: 9.9(2.4) h

Gallium bioavailability using the estimated value for V/F ([2]; human cancer patients, single oral dose 800 mg (317 mg Ga)): approximately 0.010 | Estimated oral bioavailability ([2]; human, oral): ≤ 2%
Structure (SMILES): [Cl][Ga]([Cl])[Cl] [GaCI3, gallium chloride]
Estimated V/F [3]: 2862(297) L

Structure (SMILES): Cc1occc(=O)c1[O-].Cc1occc(=O)c1[O-].Cc1occc(=O)c1[O-].[Ga+3] [gallium maltolate, tris(3-hydroxy-2-methyl-4H-pyran-4-onato)gallium]
Change in renal function (serum creatinine clearance, serum urea, BUN clearance, urinary microglobulin, urinalysis) (healthy human subjects; healthy human subjects, oral): none of the subjects who took oral GaM showed any change in renal function | Serious treatment-related adverse events (healthy human subjects; healthy human subjects, single oral doses 100-500 mg): no reports of serious treatment-related adverse events | Subjects reporting possible drug-related adverse events (healthy human subjects; healthy human subjects, single oral doses 100-500 mg, mild headache (100 mg), moderate coughs (200 mg)): Three of the twelve subjects | Tolerability (healthy human subjects; healthy human volunteers, single oral doses of 100, 200, 300 and 500 mg): very well tolerated | Solubility in water (Solubility in water): 10.7 ± 0.9 mg/mL and 24(2) mM | Absorption of Ga into blood plasma relative to intraduodenal Ga nitrate [4]: several times higher | Dissociation in dilute aqueous solution ([5]; 2.5 x 10^-5 M, pH 5.5-8.0): little dissociation | Gallium maltolate complex undissociated ([5]; dilute aqueous solution (2.5 x 10^-5 M), pH approximately 5.5 to 8): at least 98% | Dose dependence of absorption ([6]; oral, dosage range 100-500 mg): dose proportional | Urinary Ga excretion, of the administered dose ([6]; oral, over 72h): approximately 2% | Ae: cumulative urinary excretion of gallium in 72h [6, 8]: 0.35(0.14) mg | Lag time [6, 8]: 0.32(0.05) h | FAe: cumulative urinary excretion as fraction of administered dose [6, 8]: 0.022(0.001) | F (V=29.5 L) [6, 8]: 0.28 | Ae: cumulative urinary excretion of gallium in 72h [6, 9]: 0.66(0.28) mg | Lag time [6, 9]: 0.42(0.04) h | FAe: cumulative urinary excretion as fraction of administered dose [6, 9]: 0.021(0.001) | F (V=29.5 L) [6, 9]: 0.35 | Ae: cumulative urinary excretion of gallium in 72h [6, 10]: 1.11(0.08) mg | Lag time [6, 10]: 0.24(0.06) h | FAe: cumulative urinary excretion as fraction of administered dose [6, 10]: 0.023(0.000) | F (V=29.5 L) [6, 10]: 0.40 | Ae: cumulative urinary excretion of gallium in 72h [6, 11]: 1.37(0.52) mg | Lag time [6, 11]: 0.20(0.08) h | FAe: cumulative urinary excretion as fraction of administered dose [6, 11]: 0.018(0.001) | F (V=29.5 L) [6, 11]: 0.25 | Central compartment excretion half life ([6]; single oral doses 100-500 mg): 17 to 21 h | Estimated oral gallium bioavailability ([6]; single oral doses 100-500 mg, comparison with published i.v. gallium nitrate data): 25-57% | F, range over doses (from V/F with V 29.5 L) [7]: 0.25-0.40
